Results published in US9302999B2, “Substituted triazoles as herbicides” (E. I. DU PONT DE NEMOURS AND COMPANY, priority 2012, dated 2016).

What was measured:
Assay type in all cases: in vivo
[1] = system: sedge, umbrella (small-flower umbrella sedge, Cyperus difformis); assay: Test C flooded paddy test: sedge, umbrella; details: scale 0 to 100 (0 no effect, 100 complete control)
How it was run: (§1)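 Plants were grown to the 2-leaf stage, pots flooded to 3 cm above soil, and test compounds applied directly to the paddy water, with that depth held throughout. After 13 to 15 days in a greenhouse, injury was visually rated against controls on a 0 (no effect) to 100 (complete control) scale.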

[2] = system: morningglory (Ipomoea spp.); assay: Test A pre-/postemergence: morningglory
How it was run: (§2)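 Visual 0–100 injury ratings (0 no effect, 100 complete control) taken about ten days after treatment, relative to untreated controls. Preemergence treatment was a directed soil spray; postemergence plants were 2–10 cm tall at one- to two-leaf stage. Soil: loam/sand blend.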

corn (Zea mays) = assay: Test A pre-/postemergence: corn
How it was run: as §2

[3] = system: crabgrass, large (large crabgrass, Digitaria sanguinalis); assay: Test A pre-/postemergence: crabgrass, large
How it was run: as §2

rice (Oryza sativa) = assay: Test C flooded paddy test: rice; details: scale 0 to 100 (0 no effect, 100 complete control)
How it was run: as §1

[4] = system: foxtail, giant (giant foxtail, Setaria faberii); assay: Test A pre-/postemergence: foxtail, giant
How it was run: as §2

[5] = system: wheat (Triticum aestivum); assay: Test A pre-/postemergence: wheat
How it was run: as §2

[6] = system: ducksalad (Heteranthera limosa); assay: Test C flooded paddy test: ducksalad; details: scale 0 to 100 (0 no effect, 100 complete control)
How it was run: as §1

[7] = system: barnyardgrass (Echinochloa crus-galli); assay: Test C flooded paddy test: barnyardgrass; details: scale 0 to 100 (0 no effect, 100 complete control)
How it was run: as §1

[8] = system: barnyardgrass (Echinochloa crus-galli); assay: Test A pre-/postemergence: barnyardgrass
How it was run: as §2

[9] = system: pigweed (Amaranthus retroflexus); assay: Test A pre-/postemergence: pigweed
How it was run: as §2

[10] = system: velvetleaf (Abutilon theophrasti); assay: Test A pre-/postemergence: velvetleaf
How it was run: as §2

[11] = Flood (flooded paddy test), 62 g ai/ha, visual rating after 13 to 15 days
[12] = Flood (flooded paddy test), 250 g ai/ha, visual rating after 13 to 15 days
[13] = Postemergence, 125 g ai/ha, 0 to 100 scale, 0 is no effect, 100 is complete control
[14] = Postemergence, 500 g ai/ha, visual rating on 0 to 100 scale (0 no effect, 100 complete control), approximately ten days
[15] = Preemergence, 125 g ai/ha, 0 to 100 scale (0 no effect, 100 complete control)
[16] = Preemergence, 500 g ai/ha, 0 to 100 scale, 0 is no effect, 100 is complete control
[17] = Flood (flooded paddy test), 125 g ai/ha, visual rating after 13 to 15 days
[18] = Postemergence, 1000 g ai/ha, visual rating on 0 to 100 scale (0 no effect, 100 complete control), approximately ten days
[19] = Preemergence, 1000 g ai/ha, 0 to 100 scale, 0 is no effect, 100 is complete control

CCc1nn(-c2ccc(F)cc2)nc1Cn1ccc(C(F)(F)C(F)(F)F)n1 [Compound 10]
Plant response rating, Sedge, Umbrella [1, 11]: 0
Plant response rating, Sedge, Umbrella [1, 12]: 0
Morningglory plant response rating [2, 13]: 100
Morningglory plant response rating [2, 14]: 100
Plant response rating, Morningglory [2, 15]: 0
Plant response rating, Morningglory [2, 16]: 10
Corn plant response rating (corn (Zea mays); [13]): 20
Corn plant response rating (corn (Zea mays); [14]): 20
Plant response rating, Corn (corn (Zea mays); [15]): 0
Plant response rating, Corn (corn (Zea mays); [16]): 0
Crabgrass, Large plant response rating [3, 13]: 40
Crabgrass, Large plant response rating [3, 14]: 60
Plant response rating, Crabgrass, Large [3, 15]: 40
Plant response rating, Crabgrass, Large [3, 16]: 90
Plant response rating, Rice (rice (Oryza sativa); [11]): 0
Plant response rating, Rice (rice (Oryza sativa); [12]): 0
Foxtail, Giant plant response rating [4, 13]: 20
Foxtail, Giant plant response rating [4, 14]: 50
Plant response rating, Foxtail, Giant [4, 15]: 20
Plant response rating, Foxtail, Giant [4, 16]: 80
Wheat plant response rating [5, 13]: 0
Wheat plant response rating [5, 14]: 10
Plant response rating, Wheat [5, 15]: 0
Plant response rating, Wheat [5, 16]: 0
Plant response rating, Ducksalad [6, 11]: 0
Plant response rating, Ducksalad [6, 12]: 0
Plant response rating, Barnyardgrass [7, 11]: 0
Plant response rating, Barnyardgrass [7, 12]: 0
Barnyardgrass plant response rating [8, 13]: 20
Barnyardgrass plant response rating [8, 14]: 50
Plant response rating, Barnyardgrass [8, 15]: 0
Plant response rating, Barnyardgrass [8, 16]: 10
Pigweed plant response rating [9, 13]: 70
Pigweed plant response rating [9, 14]: 100
Plant response rating, Pigweed [9, 15]: 60
Plant response rating, Pigweed [9, 16]: 80
Velvetleaf plant response rating [10, 13]: 40
Velvetleaf plant response rating [10, 14]: 50
Plant response rating, Velvetleaf [10, 15]: 0
Plant response rating, Velvetleaf [10, 16]: 20

Cc1nn(-c2ccc(C(F)(F)F)cc2)nc1Cn1cc(C(F)(F)F)cn1 [Compound 32]
Plant response rating, Sedge, Umbrella [1, 11]: 0
Plant response rating, Sedge, Umbrella [1, 17]: 0
Plant response rating, Sedge, Umbrella [1, 12]: 0
Plant response rating, Sedge, Umbrella ([1]; Flood, 31 g ai/ha): 0
Morningglory plant response rating [2, 13]: 10
Morningglory plant response rating [2, 14]: 50
Plant response rating, Morningglory [2, 15]: 0
Plant response rating, Morningglory [2, 16]: 0
Corn plant response rating (corn (Zea mays); [13]): 0
Corn plant response rating (corn (Zea mays); [14]): 10
Plant response rating, Corn (corn (Zea mays); [15]): 0
Plant response rating, Corn (corn (Zea mays); [16]): 0
Crabgrass, Large plant response rating [3, 13]: 20
Crabgrass, Large plant response rating [3, 14]: 30
Plant response rating, Crabgrass, Large [3, 15]: 10
Plant response rating, Crabgrass, Large [3, 16]: 30
Plant response rating, Rice (rice (Oryza sativa); [11]): 0
Plant response rating, Rice (rice (Oryza sativa); [17]): 0
Plant response rating, Rice (rice (Oryza sativa); [12]): 0
Plant response rating, Rice (rice (Oryza sativa); Flood, 31 g ai/ha): 0
Foxtail, Giant plant response rating [4, 13]: 10
Foxtail, Giant plant response rating [4, 14]: 20
Plant response rating, Foxtail, Giant [4, 15]: 10
Plant response rating, Foxtail, Giant [4, 16]: 80
Wheat plant response rating [5, 13]: 0
Wheat plant response rating [5, 14]: 0
Plant response rating, Wheat [5, 15]: 0
Plant response rating, Wheat [5, 16]: 0
Plant response rating, Ducksalad [6, 11]: 0
Plant response rating, Ducksalad [6, 17]: 0
Plant response rating, Ducksalad [6, 12]: 0
Plant response rating, Ducksalad ([6]; Flood, 31 g ai/ha): 0
Plant response rating, Barnyardgrass [7, 11]: 0
Plant response rating, Barnyardgrass [7, 17]: 0
Plant response rating, Barnyardgrass [7, 12]: 0
Plant response rating, Barnyardgrass ([7]; Flood, 31 g ai/ha): 0
Barnyardgrass plant response rating [8, 13]: 10
Barnyardgrass plant response rating [8, 14]: 10
Plant response rating, Barnyardgrass [8, 15]: 0
Plant response rating, Barnyardgrass [8, 16]: 0
Pigweed plant response rating [9, 13]: 60
Pigweed plant response rating [9, 14]: 100
Plant response rating, Pigweed [9, 15]: 0
Plant response rating, Pigweed [9, 16]: 70
Velvetleaf plant response rating [10, 13]: 20
Velvetleaf plant response rating [10, 14]: 20
Plant response rating, Velvetleaf [10, 15]: 0
Plant response rating, Velvetleaf [10, 16]: 0

FC(F)(F)c1ccc(-n2nc(Br)c(Cc3cccc(C(F)(F)F)c3)n2)cc1 [Compound 123]
Plant response rating, Sedge, Umbrella [1, 17]: 50
Plant response rating, Sedge, Umbrella [1, 12]: 75
Plant response rating, Sedge, Umbrella ([1]; Flood, 31 g ai/ha): 0
Plant response rating, Sedge, Umbrella ([1]; Flood, 62 g ai/ha): 0
Morningglory plant response rating [2, 18]: 100
Morningglory plant response rating [2, 19]: 0
Corn plant response rating (corn (Zea mays); [18]): 40
Corn plant response rating (corn (Zea mays); [19]): 0
Crabgrass, Large plant response rating [3, 18]: 80
Crabgrass, Large plant response rating [3, 19]: 60
Plant response rating, Rice (rice (Oryza sativa); [17]): 0
Plant response rating, Rice (rice (Oryza sativa); [12]): 10
Plant response rating, Rice (rice (Oryza sativa); Flood, 31 g ai/ha): 0
Plant response rating, Rice (rice (Oryza sativa); Flood, 62 g ai/ha): 0
Foxtail, Giant plant response rating [4, 18]: 60
Foxtail, Giant plant response rating [4, 19]: 80
Wheat plant response rating [5, 18]: 20
Wheat plant response rating [5, 19]: 0
Plant response rating, Ducksalad [6, 17]: 75
Plant response rating, Ducksalad [6, 12]: 75
Plant response rating, Ducksalad ([6]; Flood, 31 g ai/ha): 0
Plant response rating, Ducksalad ([6]; Flood, 62 g ai/ha): 40
Plant response rating, Barnyardgrass [7, 17]: 0
Plant response rating, Barnyardgrass [7, 12]: 0
Plant response rating, Barnyardgrass ([7]; Flood, 31 g ai/ha): 0
Plant response rating, Barnyardgrass ([7]; Flood, 62 g ai/ha): 0
Barnyardgrass plant response rating [8, 18]: 10
Barnyardgrass plant response rating [8, 19]: 10
Pigweed plant response rating [9, 18]: 100
Pigweed plant response rating [9, 19]: 80
Velvetleaf plant response rating [10, 18]: 100
Velvetleaf plant response rating [10, 19]: 10

Cc1nn(-c2ccc(C(F)(F)F)cc2)nc1Cn1nc(C(F)(F)F)cc1C [Compound 134]
Plant response rating, Sedge, Umbrella [1, 12]: 0
Plant response rating, Sedge, Umbrella ([1]; Flood, 62 g ai/ha): 0
Morningglory plant response rating [2, 18]: 100
Plant response rating, Morningglory [2, 19]: 10
Corn plant response rating (corn (Zea mays); [18]): 20
Plant response rating, Corn (corn (Zea mays); [19]): 10
Crabgrass, Large plant response rating [3, 18]: 90
Plant response rating, Crabgrass, Large [3, 19]: 100
Plant response rating, Rice (rice (Oryza sativa); [12]): 0
Plant response rating, Rice (rice (Oryza sativa); Flood, 62 g ai/ha): 0
Foxtail, Giant plant response rating [4, 18]: 50
Plant response rating, Foxtail, Giant [4, 19]: 100
Wheat plant response rating [5, 18]: 0
Plant response rating, Wheat [5, 19]: 0
Plant response rating, Ducksalad [6, 12]: 0
Plant response rating, Ducksalad ([6]; Flood, 62 g ai/ha): 0
Plant response rating, Barnyardgrass [7, 12]: 15
Plant response rating, Barnyardgrass ([7]; Flood, 62 g ai/ha): 0
Barnyardgrass plant response rating [8, 18]: 30
Plant response rating, Barnyardgrass [8, 19]: 30
Pigweed plant response rating [9, 18]: 100
Plant response rating, Pigweed [9, 19]: 90
Velvetleaf plant response rating [10, 18]: 50
Plant response rating, Velvetleaf [10, 19]: 0
